Results: patent publication US20240245649A1, “Method and Composition for Mimicking Caloric Restriction by Administration of Ergothioneine” (NANJING NUTRABUILDING BIO-TECH CO., LTD., priority 2021, published 2024)

What was measured:
[1] = tested on: tumor necrosis factor-α (TNF-α) and interleukin (IL)-6; experiment: Inflammatory cytokines TNF-α and IL-6 by ELISA kits in high-fat diet mice; format: in vivo
Method: (§1) Mice group were named after the diet they consumed. Group A mice was fed ad libitum (control), and group B mice was on high-fat diet (HFD), Group C was fed restricted amount of the HFD diet to achieve caloric restriction (HFD+CR), and Group D was fed high-fat diet and supplemented with Ergothioneine (HFD+EGT), the concentration of Ergothioneine is 3.25 mg/kg. All groups of mice were housed individually, and fed for months of interventions and had free access to water. Health status was monitored during the intervention. At the end of each intervention, body composition, insulin sensitivity, blood glucose level, different blood parameters and lifespan of the mice were studied. After treatment, blood is taken to measure high-density lipoprotein (HDL), low-density lipoprotein (LDL) and HOmeostasis Model Assessment-Insulin Resistance (HOMA-IR). The HOMA-IR index was calculated using the following formula: HOMA-IR=[fasting glucose levels (mmol/L)]×[fasting serum insulin (mU/L)]/22.5. At the end of the experiment, AKT and phospho-AKT (Ser473) protein levels in skeletal muscle after 2 IU/kg insulin stimulation for 15 min were determined by immunoblotting (n=3-6). The concentrations of inflammatory cytokines including tumor necrosis factor-α (TNF-α) and interleukin (IL)-6, and oxidative stress markers including malonaldehyde (MDA) and superoxide dismutase (SOD) were detected by ELISA kits.

high-fat diet (HFD) mice [2] = experiment: Blood LDL and HDL in high-fat diet mice supplemented with Ergothioneine; format: in vivo
Method: as §1

high-fat diet (HFD) mice [3] = experiment: HOMA-IR (fasting glucose x fasting serum insulin /22.5) in high-fat diet mice; format: in vivo
Method: as §1

[4] = tested on: AKT and phospho-AKT (Ser473); experiment: AKT and phospho-AKT (Ser473) protein levels in skeletal muscle after insulin stimulation, immunoblotting; format: in vivo, mice
Method: as §1

[5] = tested on: malonaldehyde (MDA) and superoxide dismutase (SOD); experiment: Oxidative stress markers MDA and SOD by ELISA kits in high-fat diet mice; format: in vivo
Method: as §1

[6] = animals and humans, even at high doses; cited from earlier work

For `C[N+](C)(C)[C@@H](Cc1c[nH]c(=S)[nH]1)C(=O)[O-]` [Ergothioneine], the “content of TNF-α” value ([1]; HFD+EGT group compared with HFD group, FIG. 5) was “remarkably decreased”, the “content of IL-6” value ([1]; HFD+EGT group compared with HFD group, FIG. 6) was “remarkably decreased” and the “level of IL-6 decreased by Ergothioneine to” value ([1]; broadest of the nested bounds printed (38, 35, 30, 28, 26, 22)) was ≤ 38 pg/mL. The “level of TNF-α decreased by Ergothioneine to” value ([1]; broadest of the nested bounds printed (40, 38, 35, 32, 30, 28, 26)) was ≤ 40 pg/mL, the “level of LDL” value (high-fat diet (HFD) mice [2]; HFD+EGT (Group D), Ergothioneine 3.25 mg/kg, vs HFD group, FIG. 1) was “significantly decreased” and the “level of HDL” value (high-fat diet (HFD) mice [2]; HFD+EGT (Group D), Ergothioneine 3.25 mg/kg, vs HFD group, FIG. 2) was “significantly increased”. For the same compound, the “LDL level decreased by Ergothioneine to” value (high-fat diet (HFD) mice [2]; broadest of the nested bounds printed (24, 22, 20, 18, 15)) was ≤ 24 mg/dL, the “HDL level increased by Ergothioneine to” value (high-fat diet (HFD) mice [2]; broadest of the nested bounds printed (40, 42, 44, 46, 48, 50)) was ≥ 40 mg/dL and the HOMA-IR (high-fat diet (HFD) mice [3]; HFD+EGT group vs HFD group, FIG. 3) was “lower HOMA-IR than HFD group”. For the same compound, the “HOMA-IR decreased by Ergothioneine to” value (high-fat diet (HFD) mice [3]; broadest of the nested bounds printed (28, 26, 24, 22, 20, 15)) was ≤ 28, the “p-AKT/AKT increased by Ergothioneine to” value ([4]; broadest of the nested bounds printed (0.25, 0.35, 0.40, 0.45, 0.53, 0.60)) was ≥ 0.25 and the “insulin-stimulated AKT phosphorylation (p-AKT)/AKT relative protein expression” value ([4]; skeletal muscle, 2 IU/kg insulin for 15 min, HFD+EGT vs HFD group, FIG. 4) was “higher than HFD group”. For the same compound, the MDA expression ([5]; EGT compared with HFD group, FIG. 7) was “reduction of MDA expression”, the SOD expression ([5]; EGT compared with HFD group, FIG. 8) was “elevation of SOD expression” and the “level of MDA decreased by Ergothioneine to” value ([5]; broadest of the nested bounds printed (15, 13, 12, 11, 10, 8)) was ≤ 15 nmol/mL. The “level of SOD increased by Ergothioneine to” value ([5]; broadest of the nested bounds printed (45, 48, 50, 51, 52, 55)) was ≥ 45 U/mL and the “toxicity or adverse effects associated with administration” value [6] was “no toxicity or adverse effects”.
